For eight compounds, IC50 results are on record in US12371454B2, “Cyclic peptide compound having Kras inhibitory action” (priority 2019, dated 2025).

pIC50: −log10 of the molar value. Starred links: 1 amine or outer side, 2 acyl side, 3 side chain; linkers in the order of their positions; H or OH if unused. Positions of bridges follow the written chain, without caps; N, C: chain ends. Non-standard residues stand in square brackets, D forms with d. Residues, ends and D or L forms follow the SMILES beside them. *: point of attachment. hPhe(3-Cl-4-CF3) = N[C@@H](CCc1ccc(C(F)(F)F)c(Cl)c1)C(=O)O; hPhe(4-CF3) = N[C@@H](CCc1ccc(C(F)(F)F)cc1)C(=O)O; NMePhe(4-Cl) = CN[C@@H](Cc1ccc(Cl)cc1)C(=O)O; NMePhe(4-Me) = CN[C@@H](Cc1ccc(C)cc1)C(=O)O; NMedβ3hAla = C[C@H](CC(=O)[*:2])N(C)[*:1]; Phe(3-Cl) = N[C@@H](Cc1cccc(Cl)c1)C(=O)O; hPhe(4-F) = N[C@@H](CCc1ccc(F)cc1)C(=O)O; NMeGly(cPent) = CN[C@H](C(=O)O)C1CCCC1; X26 = O=C([C@@H]1CCC[C@H]1N[*:1])[*:2]; NMeCha = CN[C@@H](CC1CCCCC1)C(=O)O; NMehLeu = CN[C@@H](CCC(C)C)C(=O)O; NMeF = CN[C@@H](Cc1ccccc1)C(=O)O; NMeI = CC[C@H](C)[C@H](NC)C(=O)O; N(CH2CH2)2CF2 = FC1(F)CCN(*)CC1; NMeD = CN[C@@H](CC(=O)O)C(=O)O; NMeL = CN[C@@H](CC(C)C)C(=O)O; NMeV = CN[C@H](C(=O)O)C(C)C; d(β3hA) = C[C@@H](N)CC(=O)O; NMeS = CN[C@@H](CO)C(=O)O; Pip = O=C(O)[C@@H]1CCCCN1; NMeA = CN[C@@H](C)C(=O)O; Pyrrolidide = C1CCN(*)C1; Ac5c = NC1(C(=O)O)CCCC1; Aze = O=C(O)[C@@H]1CCN1; Aib = CC(C)(N)C(=O)O; Isopentyl = CC(C)CC*; NEtG = CCNCC(=O)O; Sar = CNCC(=O)O

For the assay, the target named is T1, Kras and SOS1 (biotin-tagged human Kras loaded with GDP, His-tagged human SOS1) (Homo sapiens, UniProt P01116, G12D).
T1 construct: made in house; host or cells: E. coli (stated for Kras only)
T1 sequence (P01116 1-188 isoform P01116-2 G12D): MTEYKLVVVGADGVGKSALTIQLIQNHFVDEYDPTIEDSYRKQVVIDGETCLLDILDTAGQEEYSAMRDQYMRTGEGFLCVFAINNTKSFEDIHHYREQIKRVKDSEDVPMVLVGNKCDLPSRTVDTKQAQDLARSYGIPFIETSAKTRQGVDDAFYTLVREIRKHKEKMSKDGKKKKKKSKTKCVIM
The assay is described as follows: Protein-protein interaction inhibition between Kras and SOS1 (KrasGl2D-SOS PPI) using AlphaScreen. The class given is binding. The settings on record: AlphaScreen; biotin-tagged human Kras loaded with GDP, His-tagged human SOS1; read-out: KRAS G12D-SOS PPI IC50. The method, then:
Protein-Protein Interaction Inhibition Between Kras and SOS1 (KrasGl2D-SOS PPI) Using AlphaScreen
Protein-protein interaction inhibition (PPI) between Kras and SOS1 was measured by energy transfer from nickel-conjugated donor beads to streptavidin-conjugated acceptor beads using biotin-tagged human Kras expressed in E. coli and loaded with GDP after purification and His-tagged human SOS1 enzyme. This measurement utilizes the phenomenon in which donor beads are irradiated with light at 680 nm, such that energy is transferred to acceptor beads through singlet oxygen and light at 520-620 nm is detected from the acceptor beads.
Inhibition of binding between K-ras and SOS1 is known to inhibit signaling downstream of Kras.
On to `CC[C@H](C)[C@@H]1NC(=O)[C@H](CC(C)C)N(C)C(=O)C[C@@H](C)N(C)C(=O)[C@H](CCC(C)C)N(C)C(=O)C2(CCCC2)NC(=O)[C@@H]2CCCN2C(=O)[C@H](CCc2ccc(C(F)(F)F)c(Cl)c2)NC(=O)CN(C)C(=O)[C@H](CC2CCCCC2)N(C)C(=O)CN(C)C(=O)CN(C)C1=O` [Compound 22] (cyclo([Ac5c][NMehLeu][NMedβ3hAla][NMeL]I[Sar][Sar][NMeCha][Sar][hPhe(3-Cl-4-CF3)]P)), for which the pIC50 is 6.96.

Take `CC[C@H](C)[C@@H]1NC(=O)[C@H](CC(C)C)N(C)C(=O)C[C@@H](C(=O)N(C)C)N(C)C(=O)[C@H](C2CCCC2)N(C)C(=O)[C@H](C(C)C)NC(=O)[C@@H](C)NC(=O)[C@H](CCc2ccc(C(F)(F)F)c(Cl)c2)NC(=O)CN(C)C(=O)[C@H](CC2CCCCC2)N(C)C(=O)[C@@H]2CCN2C(=O)[C@H](C)N(C)C1=O` [Compound 24] ([NMeL]I[NMeA][Aze][NMeCha][Sar][hPhe(3-Cl-4-CF3)][dA]V[NMeGly(cPent)][NMeD]-NMe2; lactam N-11): the pIC50 was 7.60. The figure for `CC[C@H](C)[C@@H]1NC(=O)[C@H](C)N(C)C(=O)[C@@H]2CCC[C@H]2NC(=O)[C@H](CC(C)C)N(C)C(=O)[C@H](Cc2ccccc2)N(C)C(=O)[C@@H]2CCCN2C(=O)[C@H](CCc2ccc(C(F)(F)F)cc2)NC(=O)CN(C)C(=O)[C@H](Cc2ccc(Cl)cc2)N(C)C(=O)CN(C)C(=O)CN(C)C1=O` [Compound 25] (cyclo(I[Sar][Sar][NMePhe(4-Cl)][Sar][hPhe(4-CF3)]P[NMeF][NMeL][X26][NMeA])) is 6.82; for `CC[C@H](C)[C@@H]1NC(=O)[C@H](CC(C)C)N(C)C(=O)C[C@@H](C(=O)N2CCCC2)N(C)C(=O)[C@H](C2CCCC2)N(C)C(=O)C2(CCCC2)NC(=O)[C@H](CC(=O)N2CCC(F)(F)CC2)N(C)C(=O)[C@H](CCc2ccc(C(F)(F)F)c(Cl)c2)NC(=O)CN(C)C(=O)[C@H](CC2CCCCC2)N(C)C(=O)[C@@H]2CCN2C(=O)[C@H](C)N(C)C1=O` [Compound 26] ([NMeL]I[NMeA][Aze][NMeCha][Sar][hPhe(3-Cl-4-CF3)][NMeD](N(CH2CH2)2CF2)[Ac5c][NMeGly(cPent)][NMeD]-Pyrrolidide; lactam N-11) it is 8.37. The figure for `CC[C@H](C)[C@@H]1NC(=O)[C@H](CC(C)C)N(C)C(=O)C[C@@H](C(=O)N(C)C)N(C)C(=O)[C@H]([C@@H](C)CC)N(C)C(=O)C2(CCCC2)NC(=O)[C@H](COCCC(C)C)N(C)C(=O)[C@H](CCc2ccc(C(F)(F)F)c(Cl)c2)NC(=O)CN(C)C(=O)[C@H](Cc2ccc(C)cc2)N(C)C(=O)[C@@H]2CCN2C(=O)[C@H](C)N(C)C1=O` [Compound 27, (3S,6S,9S,13S,16S,22S,25S,31S,34S)-25-[2-[3-chloro-4-(trifluoromethyl)phenyl]ethyl]-9-isobutyl-22-(isopentyloxymethyl)-N,N,3,4,10,14,17,23,29,32-decamethyl-6,16-bis[(1S)-1-methylpropyl]-2,5,8,11,15,18,21,24,27,30,33-undecaoxo-31-(p-tolylmethyl)spiro[1,4,7,10,14,17,20,23,26,29,32-undecazabicyclo[32.2.0]hexatriacontane-19,1′-cyclopentane]-13-carboxamide] ([NMeL]I[NMeA][Aze][NMePhe(4-Me)][Sar][hPhe(3-Cl-4-CF3)][NMeS](Isopentyl)[Ac5c][NMeI][NMeD]-NMe2; lactam N-11) is 8.48; for `CC[C@H](C)[C@@H]1NC(=O)[C@H](C)N(C)C(=O)C[C@@H](C)NC(=O)[C@H](CC(C)C)N(C)C(=O)C(C)(C)NC(=O)[C@H](CC(C)C)N(C)C(=O)[C@H](CCc2ccc(F)cc2)NC(=O)CN(C)C(=O)[C@H](Cc2ccc(Cl)cc2)N(C)C(=O)CN(C)C(=O)CN(C)C1=O` [Compound 28] (cyclo([Aib][NMeL][d(β3hA)][NMeA]I[Sar][Sar][NMePhe(4-Cl)][Sar][hPhe(4-F)][NMeL])) it is 6.80. The figure for `CC[C@H](C)[C@@H]1NC(=O)[C@H](C)N(C)C(=O)C[C@@H](C(=O)N2CCCC2)NC(=O)[C@H](C(C)C)N(C)C(=O)[C@H](Cc2ccccc2)N(C)C(=O)[C@H](Cc2ccccc2)NC(=O)[C@H](Cc2cccc(Cl)c2)NC(=O)CN(CC)C(=O)[C@H](Cc2ccc(Cl)cc2)N(C)C(=O)CN(C)C(=O)CN(C)C1=O` [Compound 29] ([NMeA]I[Sar][Sar][NMePhe(4-Cl)][NEtG][Phe(3-Cl)]F[NMeF][NMeV]D-Pyrrolidide; lactam N-11) is 6.49; for `CC[C@H](C)[C@@H]1NC(=O)[C@@H]2CCCCN2C(=O)C[C@@H](C)NC(=O)[C@H](CC(C)C)N(C)C(=O)C(C)(C)NC(=O)[C@H](CC(C)C)N(C)C(=O)[C@H](CCc2ccc(C(F)(F)F)cc2)NC(=O)CN(C)C(=O)[C@H](CC2CCCCC2)N(C)C(=O)CN(C)C(=O)CN(C)C1=O` [Compound 31] (cyclo([Aib][NMeL][d(β3hA)][Pip]I[Sar][Sar][NMeCha][Sar][hPhe(4-CF3)][NMeL])) it is 6.42.

What is called pIC50 is the IC50 on a negative log10 scale, so that one unit is a factor of ten.
